Experimental data reported in US9994546B2, “Cyclopropylamines as LSD1 inhibitors” (Incyte Corporation, priority 2014, dated 2018).

Target: LSD-1 enzyme (Homo sapiens (Human), UniProt O60341)
Test: LANCE LSD1/KDM1A demethylase assay (LSD1 histone demethylase biochemical assay)
Conditions: 1 nM LSD-1 enzyme, 1 hour preincubation at 25° C., 0.4 μM biotin-labeled Histone H3 peptide substrate
Description: LANCE LSD1/KDM1A demethylase assay—10 μL of 1 nM LSD-1 enzyme (ENZO BML-SE544-0050) in the assay buffer (50 mM Tris, pH 7.5, 0.01% Tween-20, 25 mM NaCl, 5 mM DTT) were preincubated for 1 hour at 25° C. with 0.8 μL compound/DMSO dotted in black 384 well polystyrene plates. […] After stopping the reactions plates were incubated for 30 minutes and read on a PHERAstar FS plate reader (BMG Labtech).

| Structure (SMILES) | IC50 |
| --- | --- |
| CCS(=O)(=O)N1CC(CC(=O)N(C)C)(N2CCC(N[C@@H]3C[C@H]3c3ccccc3)CC2)C1 [Example 70, 2-[1-(ethylsulfonyl)-3-(4-{[(1R,2S)-2-phenylcyclopropyl]amino}piperidin-1-yl)azetidin-3-yl]-N,N-dimethylacetamide] | ≤ 0.1 µM |
| CCS(=O)(=O)N1CC(CC(=O)NC)(N2CCC(N[C@@H]3C[C@H]3c3ccccc3)CC2)C1 [Example 71, 2-[1-(ethylsulfonyl)-3-(4-{[(1R,2S)-2-phenylcyclopropyl]amino}piperidin-1-yl)azetidin-3-yl]-N-methylacetamide] | ≤ 0.1 µM |
| N#CCC1(N2CCC(N[C@@H]3C[C@H]3c3ccccc3)CC2)CN([C@H]2CC[C@H](O)CC2)C1 [Example 72, [1-(trans-4-hydroxycyclohexyl)-3-(4-{[(1R,2S)-2-phenylcyclopropyl]amino}piperidin-1-yl)azetidin-3-yl]acetonitrile] | ≤ 0.1 µM |
| N#CCC1(N2CCC(N[C@@H]3C[C@H]3c3ccccc3)CC2)CN([C@H]2CC[C@@H](O)CC2)C1 [Example 73, [1-(cis-4-hydroxycyclohexyl)-3-(4-{[(1R,2S)-2-phenylcyclopropyl]amino}piperidin-1-yl)azetidin-3-yl]acetonitrile] | ≤ 0.1 µM |
| N#CCC1(N2CCC(N[C@@H]3C[C@H]3c3ccccc3)CC2)CN(CCO)C1 [Example 74, [1-(2-hydroxyethyl)-3-(4-{[(1R,2S)-2-phenylcyclopropyl]amino}piperidin-1-yl)azetidin-3-yl]acetonitrile] | ≤ 0.1 µM |
| N#CCC1(N2CCC(N[C@@H]3C[C@H]3c3ccccc3)CC2)CN(C2CCOCC2)C1 [Example 75, [3-(4-{[(1R,2S)-2-phenylcyclopropyl]amino}piperidin-1-yl)-1-(tetrahydro-2H-pyran-4-yl)azetidin-3-yl]acetonitrile] | ≤ 0.1 µM |
| N#CCC1(N2CCC(N[C@@H]3C[C@H]3c3ccccc3)CC2)CN(C2CCOC2)C1 (stereo partly drawn) [Example 76, [3-(4-{[(1R,2S)-2-phenylcyclopropyl]amino}piperidin-1-yl)-1-(tetrahydrofuran-3-yl)azetidin-3-yl]acetonitrile] | ≤ 0.1 µM |
| CN(C)C(=O)CN1CC(CC#N)(N2CCC(N[C@@H]3C[C@H]3c3ccccc3)CC2)C1 [Example 77, 2-(3-(cyanomethyl)-3-(4-(((1R,2S)-2-phenylcyclopropyl)amino)piperidin-1-yl)azetidin-1-yl)-N,N-dimethylacetamide] | ≤ 0.1 µM |
| CNC(=O)CN1CC(CC#N)(N2CCC(N[C@@H]3C[C@H]3c3ccccc3)CC2)C1 [Example 78, 2-[3-(cyanomethyl)-3-(4-{[(1R,2S)-2-phenylcyclopropyl]amino}piperidin-1-yl)azetidin-1-yl]-N-methylacetamide] | ≤ 0.1 µM |
| N#CCC1(N2CCC(N[C@@H]3C[C@H]3c3ccccc3)CC2)CN(CC(N)=O)C1 [Example 79, 2-[3-(cyanomethyl)-3-(4-{[(1R,2S)-2-phenylcyclopropyl]amino}piperidin-1-yl)azetidin-1-yl]acetamide] | ≤ 0.1 µM |
| Cn1cc(C(=O)N2CC(CC#N)(N3CCC(N[C@@H]4C[C@H]4c4ccccc4)CC3)C2)cn1 [Example 80, [1-[(1-methyl-1H-pyrazol-4-yl)carbonyl]-3-(4-{[(1R,2S)-2-phenylcyclopropyl]amino}piperidin-1-yl)azetidin-3-yl]acetonitrile] | ≤ 0.1 µM |
| Cn1nccc1C(=O)N1CC(CC#N)(N2CCC(N[C@@H]3C[C@H]3c3ccccc3)CC2)C1 [Example 81, [1-[(1-methyl-1H-pyrazol-5-yl)carbonyl]-3-(4-{[(1R,2S)-2-phenylcyclopropyl]amino}piperidin-1-yl)azetidin-3-yl]acetonitrile] | ≤ 0.1 µM |
| N#CCC1(N2CCC(N[C@@H]3C[C@H]3c3ccccc3)CC2)CN(C(=O)[C@H]2CC[C@H](O)CC2)C1 [Example 82, [1-[(trans-4-hydroxycyclohexyl)carbonyl]-3-(4-{[(1R,2S)-2-phenylcyclopropyl]amino}piperidin-1-yl)azetidin-3-yl]acetonitrile] | ≤ 0.1 µM |
| N#CCC1(N2CCC(N[C@@H]3C[C@H]3c3ccccc3)CC2)CN(C(=O)[C@H]2CC[C@@H](O)CC2)C1 [Example 83, [1-[(cis-4-hydroxycyclohexyl)carbonyl]-3-(4-{[(1R,2S)-2-phenylcyclopropyl]amino}piperidin-1-yl)azetidin-3-yl]acetonitrile] | ≤ 0.1 µM |
| N#CCC1(N2CCC(N[C@@H]3C[C@H]3c3ccccc3)CC2)CN(C(=O)C2(O)CC2)C1 [Example 84, [1-[(1-hydroxycyclopropyl)carbonyl]-3-(4-{[(1R,2S)-2-phenylcyclopropyl]amino}piperidin-1-yl)azetidin-3-yl]acetonitrile] | ≤ 0.1 µM |
| N#CCC1(N2CCC(N[C@@H]3C[C@H]3c3ccccc3)CC2)CN(C(=O)C2(O)CCCC2)C1 [Example 85, [1-[(1-hydroxycyclopentyl)carbonyl]-3-(4-{[(1R,2S)-2-phenylcyclopropyl]amino}piperidin-1-yl)azetidin-3-yl]acetonitrile] | ≤ 0.1 µM |

| Structure (SMILES) | IC50 |
| --- | --- |
| N#CCC1(N2CCC(N[C@@H]3C[C@H]3c3ccccc3)CC2)CN(C(=O)N2CCOCC2)C1 [Example 86, [1-(morpholin-4-ylcarbonyl)-3-(4-{[(1R,2S)-2-phenylcyclopropyl]amino}piperidin-1-yl)azetidin-3-yl]acetonitrile] | ≤ 0.1 µM |
| N#CCC1(N2CCC(N[C@@H]3C[C@H]3c3ccccc3)CC2)CN(C(=O)N2CCC(O)CC2)C1 [Example 87, [1-[(4-hydroxypiperidin-1-yl)carbonyl]-3-(4-{[(1R,2S)-2-phenylcyclopropyl]amino}piperidin-1-yl)azetidin-3-yl]acetonitrile] | ≤ 0.1 µM |
| COC1CCN(C(=O)N2CC(CC#N)(N3CCC(N[C@@H]4C[C@H]4c4ccccc4)CC3)C2)CC1 [Example 88, [1-[(4-methoxypiperidin-1-yl)carbonyl]-3-(4-{[(1R,2S)-2-phenylcyclopropyl]amino}piperidin-1-yl)azetidin-3-yl]acetonitrile] | ≤ 0.1 µM |
| N#CCC1(N2CCC(N[C@@H]3C[C@H]3c3ccccc3)CC2)CN(C(=O)N2CC(O)C2)C1 [Example 89, [1-[(3-hydroxyazetidin-1-yl)carbonyl]-3-(4-{[(1R,2S)-2-phenylcyclopropyl]amino}piperidin-1-yl)azetidin-3-yl]acetonitrile] | ≤ 0.1 µM |
| CN(C)C(=O)CC1(N2CCC(N[C@@H]3C[C@H]3c3ccccc3)CC2)CN(S(C)(=O)=O)C1 [Example 90, N,N-dimethyl-2-(1-(methylsulfonyl)-3-(4-(((1R,2S)-2-phenylcyclopropyl)amino)piperidin-1-yl)azetidin-3-yl)acetamide] | ≤ 0.1 µM |
| CNC(=O)CC1(N2CCC(N[C@@H]3C[C@H]3c3ccccc3)CC2)CN(S(C)(=O)=O)C1 [Example 91, N-methyl-2-[1-(methylsulfonyl)-3-(4-{[(1R,2S)-2-phenylcyclopropyl]amino}piperidin-1-yl)azetidin-3-yl]acetamide] | ≤ 0.1 µM |
| CCS(=O)(=O)N1CC(CCO)(N2CCC(N[C@@H]3C[C@H]3c3ccccc3)CC2)C1 [Example 92, 2-[1-(ethylsulfonyl)-3-(4-{[(1R,2S)-2-phenylcyclopropyl]amino}piperidin-1-yl)azetidin-3-yl]ethanol] | ≤ 0.1 µM |
| CS(=O)(=O)N1CC(CCO)(N2CCC(N[C@@H]3C[C@H]3c3ccccc3)CC2)C1 [Example 93, 2-[1-(methylsulfonyl)-3-(4-{[(1R,2S)-2-phenylcyclopropyl]amino}piperidin-1-yl)azetidin-3-yl]ethanol] | ≤ 0.1 µM |
| COC(=O)N1CC(CC(=O)N(C)C)(N2CCC(N[C@@H]3C[C@H]3c3ccccc3)CC2)C1 [Example 94, methyl 3-[2-(dimethylamino)-2-oxoethyl]-3-(4-{[(1R,2S)-2-phenylcyclopropyl]amino}piperidin-1-yl)azetidine-1-carboxylate] | ≤ 0.1 µM |
| CNC(=O)CC1(N2CCC(N[C@@H]3C[C@H]3c3ccccc3)CC2)CN(C(=O)OC)C1 [Example 95, methyl 3-[2-(methylamino)-2-oxoethyl]-3-(4-{[(1R,2S)-2-phenylcyclopropyl]amino}piperidin-1-yl)azetidine-1-carboxylate] | ≤ 0.1 µM |
| CN(C)C(=O)CC1(N2CCC(N[C@@H]3C[C@H]3c3ccccc3)CC2)CN(C(=O)N(C)C)C1 [Example 96, 3-[2-(dimethylamino)-2-oxoethyl]-N,N-dimethyl-3-(4-{[(1R,2S)-2-phenylcyclopropyl]amino}piperidin-1-yl)azetidine-1-carboxamide] | ≤ 0.1 µM |
| CNC(=O)CC1(N2CCC(N[C@@H]3C[C@H]3c3ccccc3)CC2)CN(C(=O)N(C)C)C1 [Example 97, N,N-dimethyl-3-[2-(methylamino)-2-oxoethyl]-3-(4-{[(1R,2S)-2-phenylcyclopropyl]amino}piperidin-1-yl)azetidine-1-carboxamide] | ≤ 0.1 µM |
| Cn1cc(N2CC(CC#N)(N3CCC(N[C@@H]4C[C@H]4c4ccccc4)CC3)C2)cn1 [Example 98, [1-(1-methyl-1H-pyrazol-4-yl)-3-(4-{[(1R,2S)-2-phenylcyclopropyl]amino}piperidin-1-yl)azetidin-3-yl]acetonitrile] | ≤ 0.1 µM |
| N#CCC1(N2CCC(N[C@@H]3C[C@H]3c3ccccc3)CC2)CN(C(=O)OC2CCOC2)C1 (stereo partly drawn) [Example 99, tetrahydrofuran-3-yl 3-(cyanomethyl)-3-(4-{[(1R,2S)-2-phenylcyclopropyl]amino}piperidin-1-yl)azetidine-1-carboxylate] | ≤ 0.1 µM |
| Cn1cc(S(=O)(=O)N2CC(CC#N)(N3CCC(N[C@@H]4C[C@H]4c4ccccc4)CC3)C2)cn1 [Example 100, [1-[(1-methyl-1H-pyrazol-4-yl)sulfonyl]-3-(4-{[(1R,2S)-2-phenylcyclopropyl]amino}piperidin-1-yl)azetidin-3-yl]acetonitrile] | ≤ 0.1 µM |
